Columns and labels:
[1] = biological target: T1, Recombinant Human CHO Stromelysin (MMP-3) (Homo sapiens, UniProt P08254); assay: P218 quenched fluorescence assay (Microfluorometric Profiling Assay), MMP-3; assay type: biochemical; details: for IC50: 6 μM P218, pH 6.5, 25 min at 37° C., read-out: MMP-3 Fluorogenic IC50; for inhibition at 5 µM: read-out: MMP-3 Fluorogenic, I = % inhibition
T1 construct: made in house; host or cells: CHO (Chinese hamster ovary) cells
Source text: (§1) P218 Quenched Fluorescence Assay for MMP Inhibition:
(§2) The P218 quenched fluorescence assay (Microfluorometric Profiling Assay) is a modification of that originally described by Knight, et al., FEBS Lett. 296 263, 1992 for a related substance and a variety of matrix metalloproteinases (MMPs) in cuvettes. The assay was run with each invention compound and the three MMPs, MMP-3, MMP-9 and MMP-2, analyzed in parallel, adapted as follows for a 96-well microtiter plate and a Hamilton AT® workstation.
(§3) P218 Fluorogenic Substrate:
(§4) P218 is a synthetic substrate containing a 4-acetyl-7-methoxycoumarin (MCA) group in the N-terminal position and a 3-[2,4-dinitrophenyl]-L-2,3-diaminopropionyl (DPA) group internally. This is a modification of a peptide reported by Knight (1992) that was used as a substrate for matrix metalloproteinases. Once the P218 peptide is cleaved (putative clip site at the Ala-Leu bond), the fluorescence of the MCA group can be detected on a fluorometer with excitation at 328 nm and emission at 393 nm. P218 is currently being produced BACHEM exclusively for Bayer. P218 has the structure:
(§5) H-MCA-Pro-Lys-Pro-Leu-Ala-Leu-DPA-Ala-Arg-NH2 (MW 1332.2)
Recombinant Human CHO Stromelysin (MMP-3)
Recombinant Human CHO Pro-MMP-3: Human CHO pro-stromelysin-257 (pro-MMP-3) was expressed and purified as described by Housley, et al., J. Biol. Chem. 268, 4481 (1993).
Activation of Pro-MMP-3: Pro-MMP-3 at 1.72 μM (100 μg/mL) in 5 mM Tris at pH 7.5, 5 mM CaCl2, 25 mM NaCl, and 0.005% Brij-35 MMP-3) activation buffer) was activated by incubation with TPCK (N-tosyl-(L)-phenylalanine chloromethyl ketone) trypsin (1: 100 w/w to pro-MMP-3) at 25° C. for 30 min. The reaction was stopped by addition of soybean trypsin inhibitor (SBTI; 5:1 w/w to trypsin concentration). This activation protocol results in the formation of 45 kDa active MMP-3, which still contains the C-terminal portion of the enzyme.
(§6) Hamiltion Microlab AT Plus: The MMP-Profiling Assay is performed robotically on a Hamilton MicroLab AT Plus®. The Hamilton is programmed to: (1) serially dilute up to 11 potential inhibitors automatically from a 2.5 mM stock in 100% DMSO; (2) distribute substrate followed by inhibitor into a 96 well Cytofluor plate; and (3) add a single enzyme to the plate with mixing to start the reaction. Subsequent plates for each additional enzyme are prepared automatically by beginning the program at the substrate addition point, remixing the diluted inhibitors and beginning the reaction by addition of enzyme. In this way, all MMP assays were done using the same inhibitor dilutions.
(§7) Millipore Cytofluor II. Following incubation, the plate was read on a Cytofluor II fluorometric plate reader with excitation at 340 nm and emission at 395 nm with the gain set at 80.
(§8) Microfluorometric Reaction Buffer (MRB): Dilution of test compounds, enzymes, and P218 substrate for the microfluorometric assay were made in microfluorometric reaction buffer consisting of 50 mM 2-(N-morpholino)ethanesulfonic acid (MES) at pH 6.5 with 10 mM CaCl2, 150 mM NaCl, 0.005% Brij-35 and 1% DMSO.
(§9) MMP Microfluorometric Profiling Assay. The assay is done with a final substrate concentration of 6 μM P218 and approximately 0.5 to 0.8 nM MMP with variable drug concentrations. The Hamilton is programmed to serially dilute up to 11 compounds from a 2.5 mM stock (100% DMSO) to 10× the final compounds concentrations in the assay. Initially, the instrument delivers various amounts of microfluoromentric reaction buffer (MRB) to a 96 tube rack of 1 ml Marsh dilution tubes. The instrument then picks up 20 μl of inhibitor (2.5 mM) from the sample rack and mixes it with a buffer in row A of the Marsh rack, resulting in a 50 μM drug concentration. The inhibitors are then serially diluted to 10, 5, 1, 0.2, 0.05 and 0.01 μM. […]

[2] = biological target: T2, Human Recombinant Gelatinase A (MMP-2) (Homo sapiens, UniProt P08253); assay: P218 quenched fluorescence assay (Microfluorometric Profiling Assay), MMP-2; assay type: biochemical; details: for IC50: 6 μM P218, pH 6.5, 25 min at 37° C., read-out: MMP-2 Fluorogenic IC50; for inhibition at 5 µM: read-out: MMP-2 Fluorogenic, I = % inhibition
T2 sequence (P08253 110-660): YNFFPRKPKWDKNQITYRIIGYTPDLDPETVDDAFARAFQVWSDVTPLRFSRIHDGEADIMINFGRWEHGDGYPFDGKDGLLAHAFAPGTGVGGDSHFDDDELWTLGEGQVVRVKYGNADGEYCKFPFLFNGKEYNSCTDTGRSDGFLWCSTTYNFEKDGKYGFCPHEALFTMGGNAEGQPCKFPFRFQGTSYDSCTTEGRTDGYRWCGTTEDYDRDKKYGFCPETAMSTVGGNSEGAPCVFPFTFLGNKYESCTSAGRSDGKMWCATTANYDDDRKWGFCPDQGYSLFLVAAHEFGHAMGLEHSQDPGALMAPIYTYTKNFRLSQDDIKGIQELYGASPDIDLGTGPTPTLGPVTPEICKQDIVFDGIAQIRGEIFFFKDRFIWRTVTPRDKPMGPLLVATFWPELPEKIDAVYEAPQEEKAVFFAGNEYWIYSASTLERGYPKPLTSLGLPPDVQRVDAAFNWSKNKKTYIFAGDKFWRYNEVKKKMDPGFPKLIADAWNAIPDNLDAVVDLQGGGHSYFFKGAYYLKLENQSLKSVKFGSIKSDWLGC

[3] = biological target: T3, Human Recombinant Gelatinase B (MMP-9) (Homo sapiens, UniProt P14780); assay: P218 quenched fluorescence assay (Microfluorometric Profiling Assay), MMP-9; assay type: biochemical; details: 6 μM P218, pH 6.5, 25 min at 37° C.; read-out: MMP-9 Fluorogenic IC50
T3 construct: made in house
Source text: as §1, §2, §3, §4, §5
Preparation of Human Recombinant Pro-Gelatinase B (MMP-9):
Recombinant Human Pro-MMP-9: Human pro-gelatinase B (pro-MMP-9) derived from U937 cDNA as described by Wilhelm, et al. J. Biol. Chem. 264, 17213 (1989) was expressed as the full-length form using a baculovirus protein expression system. The pro-enzyme was purified using methods previously described by Hibbs, et al. J. Biol. Chem. 260, 2493 (1984).
Activation of Pro-MMP-9: […] 20 μg/mL in 50 mM Tris at pH 7.4, 10 mM CaCl2, 150 mM NaCl, and 0.005% Brij-35 (MMP-9 activation buffer) was activated by incubation with 0.5 mM p-aminophenylmercuric acetate (APMA) for 3.5 h at 37° C. The enzyme was dialyzed against the same buffer to revmove the APMA.
as §6, §7, §8, §9

[4] = system: human ovarian carcinoma xenografts; details: cited from earlier work
human colon tumor = details: given intraperitoneally, orthotopic model, nude mice; cited from earlier work

T3 sequence (P14780 107-707 limits assumed): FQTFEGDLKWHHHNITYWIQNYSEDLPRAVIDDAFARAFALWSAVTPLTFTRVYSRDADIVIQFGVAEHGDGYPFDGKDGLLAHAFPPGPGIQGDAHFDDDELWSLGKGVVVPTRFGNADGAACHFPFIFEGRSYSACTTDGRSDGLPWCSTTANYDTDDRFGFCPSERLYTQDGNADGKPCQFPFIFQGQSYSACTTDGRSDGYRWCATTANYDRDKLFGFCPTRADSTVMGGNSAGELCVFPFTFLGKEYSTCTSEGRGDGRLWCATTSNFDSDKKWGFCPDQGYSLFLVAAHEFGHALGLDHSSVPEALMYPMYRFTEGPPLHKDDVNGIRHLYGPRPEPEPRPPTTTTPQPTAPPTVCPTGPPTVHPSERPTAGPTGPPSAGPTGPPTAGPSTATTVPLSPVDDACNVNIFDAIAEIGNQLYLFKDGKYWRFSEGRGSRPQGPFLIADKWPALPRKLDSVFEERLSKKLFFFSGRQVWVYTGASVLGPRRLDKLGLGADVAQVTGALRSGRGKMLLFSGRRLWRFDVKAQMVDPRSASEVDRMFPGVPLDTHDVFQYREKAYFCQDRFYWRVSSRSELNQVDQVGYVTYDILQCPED
T1 sequence (P08254 100-477): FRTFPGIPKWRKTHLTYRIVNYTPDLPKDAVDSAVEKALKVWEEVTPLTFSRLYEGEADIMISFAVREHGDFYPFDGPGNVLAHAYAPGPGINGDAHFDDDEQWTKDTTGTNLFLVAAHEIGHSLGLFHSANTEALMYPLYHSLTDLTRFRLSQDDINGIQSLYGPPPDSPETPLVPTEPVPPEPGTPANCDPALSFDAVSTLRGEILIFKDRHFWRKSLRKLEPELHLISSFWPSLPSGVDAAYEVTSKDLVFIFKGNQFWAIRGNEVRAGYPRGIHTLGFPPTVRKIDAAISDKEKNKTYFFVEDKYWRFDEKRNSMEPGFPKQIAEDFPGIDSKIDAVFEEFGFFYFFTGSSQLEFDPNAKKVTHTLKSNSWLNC

Structure (SMILES) | IC50 [1] [nM] | IC50 [2] [nM] | IC50 [3] [nM] | survival of mice bearing human ovarian carcinoma xenografts [4] | inhibition of human colon tumor growth and spread (human colon tumor) | inhibition at 5 µM [1] [%] | inhibition at 5 µM [2] [%]
CCCCCCCCCCCC(=O)CC(CCN1C(=O)c2ccccc2C1=O)C(=O)O (stereo not drawn) [III, 1,3-dihydro-1,3-dioxo-α-(2-oxotidecyl)-2H-isoindole-2-butanoic acid] | 2950 | 750 | 91 |  |  |  | 
CCCCCCCCCC(=O)CC(CCN1C(=O)c2ccccc2C1=O)C(=O)O (stereo not drawn) [II, 1,3-dihydro-1,3-dioxo-α-(2-oxoundecyl)-2H-isoindole-2-butanoic acid] | 5000 | 1850 | 240 |  |  |  | 
CNC(=O)[C@H](Cc1ccccc1)NC(=O)[C@H](CC(C)C)[C@H](CSc1cccs1)C(=O)NO [batimastat] |  |  |  | prolongs the survival | inhibits human colon tumor growth and spread |  | 
CCCCCCCCCCCCCCC(=O)CC(CCN1C(=O)c2ccccc2C1=O)C(=O)O (stereo not drawn) [VI, 1,3-dihydro-1,3-dioxo-α-(2-oxohexadecyl)-2H-isoindole-2-butanoic acid] |  | 1020 | 235 |  |  | 45 | 
COc1ccc(CC(=O)CC(CCc2ccccc2)C(=O)O)cc1 (stereo not drawn) [IX] |  |  |  |  |  | 9 | 18
CCCCCCCCCCC(=O)CC(CCN1C(=O)c2ccccc2C1=O)C(=O)O (stereo not drawn) [I, 1,3-dihydro-1,3-dioxo-α-(2-oxododecyl)-2H-isoindole-2-butanoic acid] | 4800 | 1300 | 120 |  |  |  | 
COc1ccc(CCCC(=O)CC(CCc2ccccc2)C(=O)O)cc1 (stereo not drawn) [VII] |  |  |  |  |  | 3 | 18
CCCCCCCCCCCCCC(=O)CC(CCN1C(=O)c2ccccc2C1=O)C(=O)O (stereo not drawn) [V, 1,3-dihydro-1,3-dioxo-α-(2-oxopentadecyl)-2H-isoindole-2-butanoic acid] | 3380 | 1100 | 150 |  |  |  | 
CCCCCCCCCCCCC(=O)CC(CCN1C(=O)c2ccccc2C1=O)C(=O)O (stereo not drawn) [IV, 1,3-dihydro-1,3-dioxo-α-(2-oxotetradecyl)-2H-isoindole-2-butanoicacid] | 2380 | 515 | 155 |  |  |  | 
